≈ marks a conversion by molar mass, not a printed value. Structures can show the parent of a compound that is named as a salt. Where two headings read alike, the source gives them in different places.
Tests used:
MDA-MB-231 = assay: crystal violet cell viability assay; format: cell-based; settings: for EC50: Homo sapiens; for cellular toxicity (in words): MDA-MB-231 cells
Method: The loss of cell adhesion for anchorage-dependent cell lines, such as MDCK, represents a surrogate marker of imminent cellular demise which can be measured by the crystal violet cell adhesion (CVCA) assay.^42 MDCK cells were grown in DMEM supplemented with 4% donor calf serum and 1% antibiotic (Gibco Life Technologies, Auckland NZ) and plated at 1×10^6 cells/mL in 24 well plates. CO donor compounds, CO expired compounds (left in solution for over 48 hours) or non CO releasing, debromo derivatives were dissolved in either ultrapure water or for non-water soluble compounds, in DMSO and diluted to 20-100 μM (to a final concentration of 1% DMSO where appropriate). Cells were exposed to CO donor compounds or the respective vehicle control solution for 1 hour at 37° C. prior to washing and incubating for a further 23 hours in fresh media. Cells were fixed in 96% ethanol and stained in 0.05% crystal violet solution in 20% ethanol, prior to washing and solubilising (24 hours) in 2 mL 0.1% acetic acid in 50% ethanol. Sample solutes (100 μL) from each well were transferred into a 96 well plate and absorbance measured at 585 nm. Cell survival was reported as a percentage of the value obtained for cells exposed to vehicle only and used to plot a concentration-response curve for each compound from which an EC50 value was obtained.
Toxicity was reported as EC50 values calculated from percentage cell survival using Origin Pro8 software (OriginLab, MA, USA).

MDCK cells = assay: crystal violet cell adhesion (CVCA) cell toxicity assay; settings: Canis lupus familiaris, MDCK
[1] = tested on: isolated rat aortic rings; assay: isolated rat aortic ring vasorelaxation; set-up: species or system Lewis rats; settings: rings pre-contracted with phenylephrine; 37° C.
Method: Transverse ring sections of aorta were isolated from male Lewis rats ([…], n=5-6 per group) under halothane anaesthesia and suspended under 2 g tension in an organ bath containing 10 mL of oxygenated (95% O2/5% CO2) Krebs Henseleit (KH) buffer containing 118 mM NaCl, 4.7 mM KCl, 1.2 mM KH2PO4, 1.2 mM MgSO4.7H2O, 22 mM NaHCO3, 11 mM glucose, 0.03 mM K^+ EDTA, and 2.5 mM CaCl2 as previously described.^43 Indomethacin (10 μM) was present in the buffer to exclude endogenous prostaglandins as potential modulators of vascular tone. Relaxation responses to oCOm-19 or oCOm-21 ([…]) were assessed using individual dosing in tissues pre-contracted with phenylephrine (0.1 μM). All results were subsequently expressed as a percentage of the maximal phenylephrine-induced contraction. Following repeat wash steps with Krebs Henseleit buffer, smooth muscle function and viability was confirmed by repeating the contractile response to phenylephrine. Aortic responses to individual EC50 concentrations of either CO donor in phenylephrine vasoconstricted rings were repeated separately, in the presence of the CO-chelator, myoglobin (5 μM) and the selective, irreversible inhibitor of sGC 1H-(1,2,4)oxadiazolo[4,3-a]quinoxalin-1-one, (ODQ, 10 μM), as previously described.^44

[2] = carboxyhaemoglobin in rats exposed to CO gas (earlier unpublished studies); format: in vivo; settings: 20 ppm CO gas
horse heart myoglobin = assay: carboxymyoglobin spectrophotometric assay (CO binding to myoglobin); format: biochemical; settings: 25 to 400 μM; 5 to 90 minutes
Method: CO released from oCOm-19 and oCOm-21 was measured using an established carboxymyoglobin spectrophotometric assay,^39 adapted to a 96 well plate format to enable the simultaneous correction at all absorbance wavelengths arising from any potential interference from the donor compounds.^40 Freshly prepared horse heart myoglobin (66 μM) in a PBS solution (pH 7.4) was reduced with 10% w/v sodium dithionite and added to a 96 well plate. […] Absorption spectra (λ 500-600 nm) were run at ten minute intervals using a Spectramax 96-well spectrophotometer (Molecular Devices, Crawley, UK) at 37° C. CO gas saturated PBS (714 μM), was employed as a positive control.

Solubility in water = format: physicochemical; settings: for solubility (in words): water or physiological buffers
[3] = * (MDA-MB-231), inactive CO depleted analogues, 37° C., read-out: EC50 (μM), Inactive Compound
[4] = *MDA-MB-231 cells, 1 hr exposure at 37° C., viability after 23 hrs, read-out: EC50 (μM), Active Compound
[5] = read-out: EC50 (μM), Active Compound

SMILES: Cc1c2c(c(C)c(-c3ccccc3)c1-c1ccccc1)C(=O)N(c1ccccc1)C2=O [BP-1, 4,7-Dimethyl-2,5,6-triphenyl-1H-isoindole-1,3(2H)-dione]
- EC50 (MDA-MB-231; [3]): > 200 µM
- melting point: 260 °C

SMILES: COCCOCCOCCOc1ccc(N2C(=O)c3c(C)c(-c4ccccc4)c(-c4ccccc4)c(C)c3C2=O)cc1 [BP-12, 2-(4-(2-(2-(2-Methoxyethoxy)ethoxy)ethoxy)phenyl)-4,7-dimethyl-5,6-diphenyl-1H-isoindole-1,3(2H)-dione]
- EC50 (MDA-MB-231; [3]): 196 µM
- melting point: 127 to 129 °C

SMILES: COCCOCCOCCOc1ccc(-c2c(C)c3c(c(C)c2-c2ccc(OCCOCCOCCOC)cc2)C(=O)N(c2ccc(OCCOCCOCCOC)cc2)C3=O)cc1 [BP-15, 2,5,6-Tri-(4-(2-(2-(2-methoxyethoxy)ethoxy)ethoxy)phenyl)-4,7-dimethyl-1H-isoindole-1,3(2H)-dione]
- EC50 (MDA-MB-231; [3]): > 200 µM

SMILES: Cc1c2c(c(C)c(-c3ccccc3)c1-c1ccccc1)C(=O)N(CCC(=O)ON1C(=O)CCC1=O)C2=O [BP-17, 2,5-Dioxo-1-pyrrolidinyl 4,7-dimethyl-5,6-diphenyl-1H-isoindole-1,3(2H)-dione-2-propanoate]
- EC50 (MDA-MB-231; [3]): 159 µM

SMILES: Cc1c2c(c(C)c(-c3ccccc3)c1-c1ccccc1)C(=O)N(CCC(=O)NCCN)C2=O.Cl [BP-19, N-(2-aminoethyl)-3-(4,7-dimethyl-1,3-dioxo-5,6-diphenylisoindolin-2-yl)propanamide Hydrochloride]
- EC50 (MDCK cells; read-out: EC50 (μM), Inactive Compound): > 100 µM
- vasorelaxant response (in words) [1]: no vasorelaxant effect

SMILES: [C-]#[O+] [CO gas, carbon monoxide]
- carboxyhaemoglobin level ([2]; 2 day duration): 1.1±0.25%
- carboxyhaemoglobin level ([2]; 7 day duration): 2±0.75%

SMILES: [C-]#[O+].[C-]#[O+].[C-]#[O+].[C-]#[O+].[C-]#[O+].[C-]#[O+].[Cl][Ru][Cl].[Cl][Ru][Cl] [CORM2, Tri-carbonyldichlororuthenium (II) dimer, reference compound]
- carbonmonoxymyoglobin formation (in words) (horse heart myoglobin): characteristic shift in the absorbance maxima of myoglobin

SMILES: CC12C(=O)C(C)(C(c3ccccc3)=C1c1ccccc1)C1(Br)C(=O)N(c3ccccc3)C(=O)C21 (stereo not shown) [oCOm-1, 3a-Bromo-3a,4,7,7a-tetrahydro-4,7-dimethyl-2,5,6-triphenyl-4,7-methano-1H-isoindole-1,3,8(2H)-trione]
- EC50 (MDA-MB-231; [4]): 4.6 µM
- cellular toxicity (in words) (MDA-MB-231): greatest toxicity

SMILES: CC12C(=O)C(C)(C(c3ccccc3)=C1c1ccccc1)C1(Br)C(=O)N(c3ccc(O)cc3)C(=O)C21 (stereo not shown) [oCOm-8, 3a-Bromo-3a,4,7,7a-tetrahydro-4,7-dimethyl-2-(4-hydroxyphenyl)-5,6-diphenyl-4,7-methano-1H-isoindole-1,3,8(2H)-trione]
- EC50 (MDA-MB-231; [4]): 23.1 µM

SMILES: COCCOCCOCCOc1ccc(C2=C(c3ccc(OCCOCCOCCOC)cc3)C3(C)C(=O)C2(C)C2C(=O)N(c4ccc(OCCOCCOCCOC)cc4)C(=O)C23Br)cc1 (stereo not shown) [oCOm-15, 3a-Bromo-3a,4,7,7a-tetrahydro-4,7-dimethyl-2,5,6-tri-(4-(2-(2-(2-methoxyethoxy)ethoxy)ethoxy)phenyl)-4,7-methano-1H-isoindole-1,3,8(2H)-trione]
- EC50 (MDA-MB-231; [4]): 183 µM

SMILES: CC12C(=O)C(C)(C(c3ccccc3)=C1c1ccccc1)C1(Br)C(=O)N(CCC(=O)ON3C(=O)CCC3=O)C(=O)C21 (stereo not shown) [oCOm-17, 2,5-Dioxopyrrolidin-1-yl 3-(3a-bromo-4,7-dimethyl-1,3,8-trioxo-5,6-diphenyl-1,3,3a,4,7,7a-hexahydro-2H-4,7-methanoisoindol-2-yl)propanoate]
- EC50 (MDA-MB-231; [4]): 216 µM
- cellular toxicity (in words) (MDA-MB-231): least toxic
- solubility (in words) (Solubility in water): lack of solubility in water

SMILES: CC12C(=O)C(C)(C(c3ccccc3)=C1c1ccccc1)C1(Br)C(=O)N(CCCC[C@H](N)C(=O)O)C(=O)C21 (stereo partly drawn) [oCOm-28, (2S)-2-Amino-6-(3a-bromo-4,7-dimethyl-1,3,8-trioxo-5,6-diphenyl-1,3,3a,4,7,7a-hexahydro-2H-4,7-methanoisoindol-2-yl)hexanoic Acid Trifluoroacetic Acid Salt]
- EC50 (MDCK cells; [5]): > 100 µM
- solubility (in words) (Solubility in water): water soluble

SMILES: COC(=O)[C@@H](N)CCCCN1C(=O)C2C3(C)C(=O)C(C)(C(c4ccccc4)=C3c3ccccc3)C2(Br)C1=O (stereo partly drawn) [oCOm-30, Methyl (2S)-2-amino-6-(3a-bromo-4,7-dimethyl-1,3,8-trioxo-5,6-diphenyl-1,3,3a,4,7,7a-hexahydro-2H-4,7-methanoisoindol-2-yl)hexanoate Trifluoroacetic Acid Salt]
- EC50 (MDCK cells; [5]): > 100 µM
- solubility (in words) (Solubility in water): water soluble

SMILES: CCOC(=O)[C@@H](N)CCCCN1C(=O)C2C3(C)C(=O)C(C)(C(c4ccccc4)=C3c3ccccc3)C2(Br)C1=O (stereo partly drawn) [oCOm-32, Ethyl (2S)-2-amino-6-(3a-bromo-4,7-dimethyl-1,3,8-trioxo-5,6-diphenyl-1,3,3a,4,7,7a-hexahydro-2H-4,7-methanoisoindol-2-yl)hexanoate Trifluoroacetic Acid Salt]
- EC50 (MDCK cells; [5]): > 100 µM
- solubility (in words) (Solubility in water): water soluble

SMILES: CCCOC(=O)[C@@H](N)CCCCN1C(=O)C2C3(C)C(=O)C(C)(C(c4ccccc4)=C3c3ccccc3)C2(Br)C1=O (stereo partly drawn) [oCOm-34, nPropyl (2S)-2-amino-6-(3a-bromo-4,7-dimethyl-1,3,8-trioxo-5,6-diphenyl-1,3,3a,4,7,7a-hexahydro-2H-4,7-methanoisoindol-2-yl)hexanoate Trifluoroacetic Acid Salt]
- EC50 (MDCK cells; [5]): > 100 µM
- solubility (in words) (Solubility in water): water soluble

SMILES: COC(=O)[C@@H](N)CCCN1C(=O)C2C3(C)C(=O)C(C)(C(c4ccccc4)=C3c3ccccc3)C2(Br)C1=O (stereo partly drawn) [oCOm-40, Methyl (2S) 2-amino-5-(3a-bromo-4,7-dimethyl-1,3,8-trioxo-5,6-diphenyl-1,3,3a,4,7,7a-hexahydro-2H-4,7-methanoisoindol-2-yl)-pentanoate Trifluoroacetic Acid Salt]
- EC50 (MDCK cells; [5]): > 100 µM
- solubility (in words) (Solubility in water): water soluble

SMILES: CC12C(=O)C(C)(C(c3ccccc3)=C1c1ccccc1)C1(Br)C(=O)N(Cc3cn(CCOC4OC(CO)C(O)C(O)C4O)nn3)C(=O)C21 [oCOm-49, 3a-Bromo-3a,4,7,7a-tetrahydro-4,7-dimethyl-2-[[1-(2-α-D-mannopyranosyloxy)ethyl]-1H-1,2,3-triazol-4yl]methyl-5,6-diphenyl-4,7-methano-1H-isoindole-1,3,8(2H)-trione]
- EC50 (MDCK cells; [5]): > 200 µM
- solubility (in words) (Solubility in water): decreased water solubility
- solubility (Solubility in water; water, 21° C.): 900 µg/mL (≈ 1240 µM)
